Laboratory results: patent publication US12453731B2, “Aniline-based WDR5 protein-protein interaction inhibitor, and preparation method and use thereof” (CHINA PHARMACEUTICAL UNIVERSITY, priority 2019, dated 2025)
pIC50: −log10 of the molar value.

How the values were obtained:
[1] = biological target: MLL1-WDR5 PPI (Homo sapiens (Human), UniProt P61964); assay: fluorescent probe assay of MLL1-WDR5 protein-protein interaction inhibition; type: binding; details: fluorescent probe based on MLL1 peptide, incubation 0.5 hrs, read-out: MLL1-WDR5 PPI inhibiting activity IC50
Procedure: In the present disclosure, a fluorescent molecular probe was constructed based on a MLL1 peptide fragment binding to WDR5, for use as a method for study on an aniline compound interfering with WDR5 protein-protein interaction, to determine an inhibition rate of the aniline compound at various concentrations, and then compute the IC50 value. Specific experimental steps: 20 μL of WDR5 protein, 20 μL of a fluorescent probe, and 20 μL of a compound of different concentration gradients were added to a 384-well plate respectively. After incubation for 0.5 hrs, the fluorescence was read on a multifunctional microplate reader at an excitation wavelength of 485 nm and an emission wavelength of 535 nm, to compute the mP value. The inhibition rate was computed as per the formula below, and then the IC50 value was computed using GraphPad software.

[2] = test system: methylation level of H3K4; assay: inhibition of the methylation level of H3K4 (methyltransferase activity); type: biochemical
[3] = test system: MV4-11 human acute mononuclear leukemia cells; assay: anti-proliferative activity against leukemia cells MV4-11; type: cell-based; details: Homo sapiens, MV4-11, MV4-11 cells; read-out: GI50 (MV-411)
Excerpt: (§1) Some compounds of the present disclosure have also been tested for the antiproliferative activity against leukemia cells.

[4] = test system: Molm-13 human acute myeloid leukemia cells; assay: anti-proliferative activity against leukemia cells Molm-13; type: cell-based; details: Homo sapiens, MOLM-13, Molm-13 cells
Excerpt: as §1

In the case of CC(C)NC(=O)c1ccc(-c2ccc(N3CCN(C)CC3)c(Nc3ncnc(Cl)c3N)c2)cc1 [Example 31, 3″-((5-amino-6-chloropyrimidin-4-yl)amino)-N-isopropyl-4″-(4-methylpiperazin-1-yl)-[1,1′-biphenyl]-4-carboxamide], the pIC50 [1] was 6.34, the “Whether the methylation level of H3K4 was inhibited” value [2] was “Yes” and the GI50 [3] was 10.5 µM. It also gave a GI50 [4] of 18.8 µM.
For CN1CCN(c2ccc(-c3ccc(N)cc3)cc2Nc2ncnc(Cl)c2N)CC1 [Example 32, N^4-(4′-amino-4-(4-methylpiperazin-1-yl)-[1,1′-biphenyl]-3-yl)-6-chloropyrimidine-e-4,5-diamine], the pIC50 [1] was 6.16, the “Whether the methylation level of H3K4 was inhibited” value [2] was “Yes” and the GI50 [3] was 40 µM. For the same compound, the GI50 [4] was 27.2 µM.
In the case of CN1CCN(c2ccc(-c3ccc(NC(=O)C4CCOCC4)cc3)cc2Nc2ncnc(Cl)c2N)CC1 [Example 33, N-(3″-((5-amino-6-chloropyrimidin-4-yl)amino)-4″-(4-methylpiperazin-1-yl)-[1,1′-biphenyl]-4-yl)tetrahydro-2H-pyran-4-carboxamide], the pIC50 [1] was 6.31, the “Whether the methylation level of H3K4 was inhibited” value [2] was “Yes” and the GI50 [3] was 25.9 µM. For the same compound, the GI50 [4] was 22.7 µM.
With CN1CCC(C(=O)Nc2ccc(-c3ccc(N4CCN(C)CC4)c(Nc4ncnc(Cl)c4N)c3)cc2)CC1 [Example 34, N-(3″-((5-amino-6-chloropyrimidin-4-yl)amino)-4″-(4-methylpiperazin-1-yl)-[1,1′-biphenyl]-4-yl)-1-methylpiperidin-4-carboxamide] the pIC50 [1] was 6.54, the “Whether the methylation level of H3K4 was inhibited” value [2] was “Yes” and the GI50 [3] was 23.2 µM. It also gave a GI50 [4] of 20.8 µM.
With CN1CCN(c2ccc(-c3ccc(NC(=O)C4CCCCC4)cc3)cc2Nc2ncnc(Cl)c2N)CC1 [Example 35, N-(3″-((5-amino-6-chloropyrimidin-4-yl)amino)-4″-(4-methylpiperazin-1-yl)-[1,1′-biphenyl]-4-yl)cyclohexanecarboxamide] the pIC50 [1] was 6.43, the “Whether the methylation level of H3K4 was inhibited” value [2] was “Yes” and the GI50 [3] was 2.07 µM. It also gave a GI50 [4] of 6.16 µM.
For CCCC(=O)Nc1ccc(-c2ccc(N3CCN(C)CC3)c(Nc3ncnc(Cl)c3N)c2)cc1 [Example 36, N-(3″-((5-amino-6-chloropyrimidin-4-yl)amino)-4″-(4-methylpiperazin-1-yl)-[1,1′-biphenyl]-4-yl)butyramide], the pIC50 [1] was 6.58, the “Whether the methylation level of H3K4 was inhibited” value [2] was “Yes” and the GI50 [3] was 9.32 µM. For the same compound, the GI50 [4] was 12.5 µM.
With CN1CCN(C(=O)c2ccc(-c3ccc(N4CCN(C)CC4)c(Nc4ncnc(Cl)c4N)c3)c(F)c2)CC1 [Example 38, (3″-((5-amino-6-chloropyrimidin-4-yl)amino)-2-fluoro-4″-(4-methylpiperazin-1-yl)-[1,1′-biphenyl]-4-yl)(4-methylpiperazin-1-yl)methanone] the pIC50 [1] was 6.19, the “Whether the methylation level of H3K4 was inhibited” value [2] was “Yes” and the GI50 [3] was 20.8 µM. For the same compound, the GI50 [4] was 26 µM.
In the case of CN1CCN(c2ccc(-c3cccc(N)c3)cc2Nc2ncnc(Cl)c2N)CC1 [Example 39, N-(3′-amino-4-(4-methylpiperazin-1-yl)-[1,1′-biphenyl]-3-yl)-6-chloropyrimidine-4,5-diamine], the pIC50 [1] was 6.17, the “Whether the methylation level of H3K4 was inhibited” value [2] was “Yes” and the GI50 [3] was 32.2 µM. For the same compound, the GI50 [4] was 28.6 µM.
For CN1CCN(c2ccc(-c3cccc(NC(=O)C4CCOCC4)c3)cc2Nc2ncnc(Cl)c2N)CC1 [Example 40, N-(3″-((5-amino-6-chloropyrimidin-4-yl)amino)-4″-(4-methylpiperazin-1-yl)-[1, 1′-biphenyl]-3-yl)tetrahydro-2H-pyran-4-carboxamide], the pIC50 [1] was 6.48, the “Whether the methylation level of H3K4 was inhibited” value [2] was “Yes” and the GI50 [3] was 28.4 µM. For the same compound, the GI50 [4] was 26.2 µM.
For CN1CCC(C(=O)Nc2cccc(-c3ccc(N4CCN(C)CC4)c(Nc4ncnc(Cl)c4N)c3)c2)CC1 [Example 41, N-(3″-((5-amino-6-chloropyrimidin-4-yl)amino)-4″-(4-methylpiperazin-1-yl)-[1,1′-biphenyl]-3-yl)-1-methylpiperidin-4-carboxamide], the pIC50 [1] was 6.48, the “Whether the methylation level of H3K4 was inhibited” value [2] was “Yes” and the GI50 [3] was 25.8 µM. It also gave a GI50 [4] of 24.4 µM.
